According to patent US20240228476A1, “INHIBITORS OF PROTEIN TYROSINE PHOSPHATASE, COMPOSITIONS, AND METHODS OF USE” (BRISTOL-MYERS SQUIBB COMPANY, priority 2022, published 2024):
Read-outs that look alike come from different tables or passages of the source.

How the values were obtained:
PTPN2 [1] = biological target: T1, PTPN2 (Homo sapiens, UniProt P17706); experiment: PTPN2 biochemical assay (PhosphoSens, substrate AQT0264); details: PhosphoSens substrate AQT0264 20 μM, room temperature; read-out: PTPN2 BCHEM IC50
T1 sequence (P17706 1-415): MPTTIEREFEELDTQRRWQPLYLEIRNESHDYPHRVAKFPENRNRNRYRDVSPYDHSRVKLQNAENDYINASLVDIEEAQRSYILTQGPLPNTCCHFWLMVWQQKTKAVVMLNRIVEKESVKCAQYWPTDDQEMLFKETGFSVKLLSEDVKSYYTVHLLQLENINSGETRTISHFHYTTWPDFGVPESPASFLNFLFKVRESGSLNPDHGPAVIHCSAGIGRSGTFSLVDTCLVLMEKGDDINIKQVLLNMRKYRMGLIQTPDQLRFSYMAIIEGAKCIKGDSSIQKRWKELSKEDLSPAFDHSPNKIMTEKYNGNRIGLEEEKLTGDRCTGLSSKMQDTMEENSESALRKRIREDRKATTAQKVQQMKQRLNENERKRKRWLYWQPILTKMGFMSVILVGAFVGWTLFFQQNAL
Procedure: A PhosphoSens® kinase assay was performed as described by the vendor (AssayQuant Technologies, Marlborough, MA). Briefly, 1000× solutions of compounds were prepared in DMSO via serial dilution of the 10 mM DMSO stocks using 3-fold intervals in a 384-well reagent plate. 50 nL of the compound dilution series was then added to the corresponding wells of a 384-well assay plate. 40 mL of 1.25× substrate (AQT0264) in 1× assay buffer (50 mM HEPES pH 7.5, 500 μM EGTA, […] MgCl2, 0.01% Brij-35, 1% Glycerol, 1 mM DTT, and 0.2 mg/mL BSA) was transferred to each well of the assay plate to achieve a final substrate concentration of 20 μM. Finally, […] of 5×PTPN2 enzyme stock was added to each well of the assay plate for a final enzyme concentration of […]. Reaction progress curves were collected by sampling fluorescence intensity at the excitation wavelength 360 nm (λex360) and emission wavelength 480 nm (λem480) every 71 seconds for one hour using a Synergy H4 plate reader (BioTek Instruments/Agilent Technologies, Winooski, VT) at room temperature.
(§1) For IC50 data, High DDT concentration and/or DiFMUP substrate assays were used; a skilled artisan may use either assay.

phospho-STAT1 (Tyr701) = experiment: Phospho-STAT1 (Tyr701) HTRF assay in B16-F10 cells; type: cell-based; details: mouse IFN-gamma 100 ng/ml, 1 hour, read-out: pSTAT1 HTRF B16 EC50
Procedure: B16-F10 cells (ATCC, Manassas, VA, #CRL-6475) were cultured in DMEM growth medium (ThermoFisher Scientific, Waltham, MA, #11995-040) supplemented with 10% heat inactivated FBS (ThermoFisher Scientific, #16140-071) and 1% pen/strep (ThermoFisher Scientific, #15140-122). The cells were seeded into a white opaque 384-well tissue culture treated microplate (PerkinElmer, Waltham, MA, #6007688) at a density of 10,000 cells/well in 20 uL total volume and incubated overnight at 37 C and 5% CO2. 30 nL of compounds dissolved in DMSO were then transferred from a source plate into target wells with the Echo650 acoustic liquid handler (Beckman Coulter, Indianapolis, IN). Negative control wells received 30 nL of DMSO only (0.15% final concentration). Plates were returned to the incubator for 1 hour and then cells treated with either 5 uL of growth medium or 5 uL of growth medium containing 500 ng/ml of recombinant mouse IFN-gamma protein (R&D Systems, Minneapolis, MN, #485-MI/CF, 100 ng/ml final concentration) using the Assist automated pipetting platform (INTEGRA Biosciences, Hudson, NH). Plates were incubated at 37 C for 1 hour and assayed for phosphorylated STAT1 protein levels with the phospho-STAT1 (Tyr701) HTRF kit (Cisbio, Bedford, MA, #63ADK026PEH) according to manufacturer's instructions. HTRF signal intensity was collected with the En Vision 2105 plate reader (PerkinElmer) 24 hours later and analyzed with the Dotmatics software platform to calculate compound IC50 values.

B16-F10 cells = experiment: Cell proliferation assay (CellTiter-Glo) in B16-F10 cells with IFN-gamma; type: cell-based; details: mouse IFN-gamma 10 ng/mL, read-out: PTPN2 Prolif 5d B16F10 EC50
Procedure: B16-F10 cells (ATCC, Manassas, VA, #CRL-6475) were cultured in DMEM growth medium (ThermoFisher Scientific, Waltham, MA, #11995-040) supplemented with 10% heat inactivated FBS (ThermoFisher Scientific, #16140-071) and 1% pen/strep (ThermoFisher Scientific, #15140-122). The cells were seeded into two white opaque 384-well tissue culture treated microplates (PerkinElmer, Waltham, MA, #6007688) at a density of 100 cells/well in 20 uL total volume and incubated overnight at 37 C and 5% CO2. 30 nL of compounds dissolved in DMSO were then transferred from a source plate into target wells with the Echo650 acoustic liquid handler (Beckman Coulter, Indianapolis, IN). Negative control wells received 30 nL of DMSO only (0.15% final concentration). Plates were returned to the incubator for 1 hour and then cells treated with either 5 uL of growth medium or 5 uL of growth medium containing 50 ng/ml of recombinant mouse IFN-gamma protein (R&D Systems, Minneapolis, MN, #485-MI/CF, 10 ng/mL final concentration) using the Assist automated pipetting platform (INTEGRA Biosciences, Hudson, NH). Plates were incubated at 37 C for 4 days and cell proliferation assayed with the CellTiter-Glo reagent (Promega, Madison, WI, #G7573, 25 uL per well). […] Off-target compound mediated cytotoxicity was identified by checking for growth inhibition in the absence of IFNg.

PTPN2 [2] = biological target: T1, PTPN2; experiment: Phosphatase activity assay using DiFMUP as substrate; type: biochemical; design: purchased MilliporeSigma SRP5075; details: 10 mM DTT, PTPN2 0.15 nM, room temperature, read-out: PTPN2 BCHEM DIFMUP IC50
Procedure: The PTPN2 biochemical assay was performed as follows, a 5× stock solution of human PTPN2 (SRP5075, MilliporeSigma, Burlington, MA) and a 1.25× stock solution of DiFMUP (D6567, ThermoFisher Scientific, Waltham, MA), were prepared in 1× reaction buffer consisting of 50 mM HEPES, pH 7.4, 1 mM EDTA, 150 mM NaCl, 0.2 mg/mL BSA, 100 U/mL catalase and 10 mM DTT. […] of the DiFMUP substrate solution, for a final concentration of […] DiFMUP substrate, was added to a Corning 3574 384-well, white, non-binding surface microtiter plate containing […] of serially diluted test compounds prepared in DMSO. The reactions were started with the addition of […] of the enzyme solution, for a final PTPN2 concentration of 0.15 nM, and monitored every 105 seconds for 60 minutes at λEX 360/λEM 460 in a BioTek Synergy HTX plate reader (Agilent Technologies, Santa Clara, CA) at room temperature. The initial linear portions of the progress curves were fit according to a linear equation to yield the slopes and converted to % inhibition based on a value of 100% activity for the no inhibitor treated control. IC50 values of each compound were obtained by fitting the % inhibition-compound concentration curves using Dotmatics software (Dotmatics, Bishops Stortford, Hertfordshire, England)
as §1

| Molecule | IC50 (PTPN2 [1]) | EC50 (phospho-STAT1 (Tyr701)) | IC50 (PTPN2 [2]) | EC50 (B16-F10 cells; 120 h) | EC50 (B16-F10 cells) |
| --- | --- | --- | --- | --- | --- |
| 6-[[3-fluoro-5-hydroxy-4-(1,1,4-trioxo-1,2,5-thiadiazolidin-2-yl)phenyl]methylamino]-4-methyl-pyridine-3-carbonitrile [EXAMPLE 5] | 20 nM | 4470 nM | 20 nM |  | 4760 nM |
| CN(C)c1ccc(NCc2cc(O)c(N3CC(=O)NS3(=O)=O)c(F)c2)cn1 [EXAMPLE 1, 5-[4-[[[6-(dimethylamino)-3-pyridyl]amino]methyl]-2-fluoro-6-hydroxy-phenyl]-1,1-dioxo-1,2,5-thiadiazolidin-3-one] | 20 nM | 420 nM | 130 nM | 900 nM |  |
| Cc1cc(NCc2cc(O)c(N3CC(=O)NS3(=O)=O)c(F)c2)cc(C)n1 [EXAMPLE 2, 5-[4-[[(2,6-dimethyl-4-pyridyl)amino]methyl]-2-fluoro-6-hydroxy-phenyl]-1,1-dioxo-1,2,5-thiadiazolidin-3-one] | 10 nM | 14000 nM | 50 nM | 6000 nM |  |
| Cc1ccnc(C)c1NCc1cc(O)c(N2CC(=O)NS2(=O)=O)c(F)c1 [EXAMPLE 3, 5-[4-[[(2,4-dimethyl-3-pyridyl)amino]methyl]-2-fluoro-6-hydroxy-phenyl]-1,1-dioxo-1,2,5-thiadiazolidin-3-one] | 90 nM | 6160 nM | 60 nM | 5370 nM |  |
| Cc1cc(C)nc(NCc2cc(O)c(N3CC(=O)NS3(=O)=O)c(F)c2)n1 [EXAMPLE 29, 5-[4-[[(4,6-dimethylpyrimidin-2-yl)amino]methyl]-2-fluoro-6-hydroxy-phenyl]-1,1-dioxo-1,2,5-thiadiazolidin-3-one] |  | 760 nM | 60 nM | 4770 nM |  |
| O=C1CN(c2c(O)cc(CNc3cnccc3-c3ccc(C(F)(F)F)cc3)cc2F)S(=O)(=O)N1 [EXAMPLE 30, 5-[2-fluoro-6-hydroxy-4-[[[4-[4-(trifluoromethyl)phenyl]-3-pyridyl]amino]methyl]phenyl]-1,1-dioxo-1,2,5-thiadiazolidin-3-one] |  | > 15000 nM | 60 nM | > 15000 nM |  |
| N#Cc1ncc(NCc2cc(O)c(N3CC(=O)NS3(=O)=O)c(F)c2)cn1 [EXAMPLE 32, 5-((4-(1,1-dioxido-4-oxo-1,2,5-thiadiazolidin-2-yl)-3-fluoro-5-hydroxybenzyl)amino)pyrimidine-2-carbonitrile] |  | 730 nM | 1 nM | 1380 nM |  |

The remaining molecules from weak to strong by EC50 (phospho-STAT1 (Tyr701)), led by results:

| IC50 (PTPN2 [1]) | EC50 (phospho-STAT1 (Tyr701)) | IC50 (PTPN2 [2]) | EC50 (B16-F10 cells; 120 h) | Molecule | EC50 (B16-F10 cells) |
| --- | --- | --- | --- | --- | --- |
|  | 7860 nM | 20 nM | 7770 nM | COc1cnc(C)c(NCc2cc(O)c(N3CC(=O)NS3(=O)=O)c(F)c2)n1 [EXAMPLE 21, 5-[2-fluoro-6-hydroxy-4-[[(6-methoxy-3-methyl-pyrazin-2-yl)amino]methyl]phenyl]-1,1-dioxo-1,2,5-thiadiazolidin-3-one] |  |
|  | 3430 nM | 20 nM | 11300 nM | COc1nc(NCc2cc(O)c(N3CC(=O)NS3(=O)=O)c(F)c2)cnc1C [EXAMPLE 25, 5-[2-fluoro-6-hydroxy-4-[[(6-methoxy-5-methyl-pyrazin-2-yl)amino]methyl]phenyl]-1,1-dioxo-1,2,5-thiadiazolidin-3-one] |  |
| 20 nM | 2670 nM | 220 nM | 3900 nM | O=C1CN(c2c(O)cc(CNc3cncc(Cl)c3)cc2F)S(=O)(=O)N1 [EXAMPLE 8, 5-[4-[[(5-chloro-3-pyridyl)amino]methyl]-2-fluoro-6-hydroxy-phenyl]-1,1-dioxo-1,2,5-thiadiazolidin-3-one] |  |
| 70 nM | 2560 nM | 400 nM | 4240 nM | O=C1CN(c2c(O)cc(CNc3ccc(-c4ccccc4)nc3)cc2F)S(=O)(=O)N1 [EXAMPLE 6, 5-[2-fluoro-6-hydroxy-4-[[(6-phenyl-3-pyridyl)amino]methyl]phenyl]-1,1-dioxo-1,2,5-thiadiazolidin-3-one] |  |
| 40 nM | 2300 nM | 100 nM | 3130 nM | O=C1CN(c2c(O)cc(CNc3cncc(C(F)(F)F)c3)cc2F)S(=O)(=O)N1 [EXAMPLE 7, 5-[2-fluoro-6-hydroxy-4-[[[5-(trifluoromethyl)-3-pyridyl]amino]methyl]phenyl]-1,1-dioxo-1,2,5-thiadiazolidin-3-one] |  |
| 44 nM | 1850 nM | 11 nM | 1650 nM | N#Cc1cncc(NCc2cc(O)c(N3CC(=O)NS3(=O)=O)c(F)c2)c1 [EXAMPLE 4, 5-[[3-fluoro-5-hydroxy-4-(1,1,4-trioxo-1,2,5-thiadiazolidin-2-yl)phenyl]methylamino]pyridine-3-carbonitrile] |  |
| 140 nM | 1770 nM |  | 6020 nM | CC(C)c1cnc(NCc2cc(O)c(N3CC(=O)NS3(=O)=O)c(F)c2)nc1 [EXAMPLE 11, 5-[2-fluoro-6-hydroxy-4-[[(5-isopropylpyrimidin-2-yl)amino]methyl]phenyl]-1,1-dioxo-1,2,5-thiadiazolidin-3-one] |  |
|  | 250 nM | 20 nM | 630 nM | Cc1ccc(NCc2cc(O)c(N3CC(=O)NS3(=O)=O)c(F)c2)nn1 [EXAMPLE 28, 5-(2-fluoro-6-hydroxy-4-(((6-methylpyridazin-3-yl)amino)methyl)phenyl)-1,2,5-thiadiazolidin-3-one 1,1-dioxide] |  |
